These results are taken from patent US7067531B2, “Farnesyl transferase inhibiting 6-heterocyclylmethyl quinolinone derivatives” (priority 2000, dated 2006).

The compound `Cn1cncc1C(O)(c1ccoc1)c1ccc2c(c1)c(-c1cccc(Cl)c1)cc(=O)n2C` (racemic) [Example B6, (±)-4-(3-chlorophenyl)-6-[3-furanylhydroxy(1-methyl-1H-imidazol-5-yl)methyl]-1-methyl-2(1H)-quinolinone] showed a melting point of 248 °C. Compound `Cn1cncc1C(N)(c1ccoc1)c1ccc2c(c1)c(-c1cccc(Cl)c1)cc(=O)n2C` (racemic) [Example B8, (±)-6-[amino-3-furanyl(1-methyl-1H-imidazol-5-yl)methyl]-4-(3-chlorophenyl)-1-methyl-2(1H)-quinolinone] showed a melting point of 197 °C.

`Cn1cncc1C(O)(c1ccc2c(c1)c(-c1cccc(Cl)c1)cc(=O)n2C)c1nccs1` (racemic) [Example B3 F2, (±)-4-(3-chlorophenyl)-6-[hydroxy(1-methyl-1H-imidazol-5-yl)-2-thiazolylmethyl]-1-methyl-2(1H)-quinolinone]: the melting point came out at 246 °C. The result for `Cn1cncc1C(O)(c1ccc2c(c1)c(-c1cccc(Cl)c1)cc(=O)n2C)c1nccn1C` (centres unmarked) [Example B7, 4-(3-chlorophenyl)-6-[hydroxy(1-methyl-1H-imidazol-2-yl)(1-methyl-1H-imidazol-5-yl)methyl]-1-methyl-2(1H)-quinolinone] reads 130 °C; that for `O=C(O)C(=O)O.O=c1[nH]c2ccc(C(c3nc(-c4ccccc4)cs3)n3ccnc3-c3ccccc3)cc2c(-c2cccc(Cl)c2)c1CO` (centres unmarked), 149 °C.

Broadly, the melting point is the temperature of the solid-liquid transition.
